Data: patent publication US12059429B2, “Hornerin: a novel non-VEGF mediated angiogenic protein expressed in both human and mouse angiogenic endothelial cells and human pancreatic cancer cells” (University of Virginia Patent Foundation, priority 2018, dated 2024)

How the values were obtained:
L3.6pl PDAC cells = test: Subcutaneous L3.6pl PDAC xenograft tumor volume; assay type: in vivo, mouse
Experimental: A tumor sample size of four was determined by power analysis based on prior tumor xenograft studies. For our 80% power analysis, the difference between means was 200 mm^3, standard deviation was 100 mm^3, and P-value<0.05 (P<0.05). Tumors were measured at least twice weekly until their volume was >1000 mm^3, at which point animals were euthanized. Tumor size data were collected from each tumor, with the exception of one tumor in the combination treatment experiment that was identified with 90% confidence via Grubb's Outlier Test. The following number of mice in each treatment cohort was evaluated for tumor outgrowth: (Scr siRNA/ctrl., N=15; Hrnr siRNA/ctrl., N=14; Scr siRNA/AV-951, N=8; Hrnr siRNA/AV-951, N=8).
For tumor implantation, L3.6pl cells were grown under normal culture conditions for 72 hours prior to being trypsinized and enumerated. The cells were suspended in aliquots of 500,000 cells/50 μL Hanks Balanced Salt Solution (HBSS; Corning, Manassas, VA, USA) and 50 μL of Matrigel (BD Biosciences, San Jose, CA, USA) was added to each aliquot of cells prior to implantation. The cell-Matrigel slurry was injected subcutaneously into nu/nu mice on the flanks or orthotopically into the pancreas (Seaman et al., 2011). The injection site for subcutaneous tumors was monitored daily for growth and tumor volume was calculated form caliper measurements using the formula (width^2×length)/2.
The VEGFR inhibitor AV-951 (Selleck Chemicals, Houston, TX, USA) was suspended in 0.5% methocel+0.5% Tween-20 in HBSS to increase viscosity and 50 μL of 1.0 mg/kg AV-951 or VC solution was administered once daily by oral gavage (22-gauge gavage needle (Kent Scientific, Torrington, CT, USA) connected to a 1 mL syringe). […] To prepare Hrnr siRNA and Silencer Select Negative Control #1 Scr siRNA (Invitrogen; catalog number 4390844) for injection, 10 μg of hornerin or control siRNA were combined with in vivo-jetPEI transfection reagent (Polyplus, France) in solution with 5% glucose per Polyplus instructions (total volume 50 μL). After a 30 minutes incubation, the siRNA solutions were injected slowly into the center of the tumor. A second independent hornerin knockdown experiment was conducted using a pooled set of three unique mouse Hrnr siRNA duplexes (5′-[…]-3′ (SEQ ID NO: 50); 5 ‘-[…]-3’ (SEQ ID NO: 51); 5 ‘-[…]-3’ (SEQ ID NO: 52)) and Scr siRNA (Origene, Rockville, MD, USA). The reagent preparation and injection protocol were similar to that described above.

murine Hrnr = test: In vitro siRNA-mediated hornerin knockdown in COCA cells (immunoblot); assay type: cell-based; settings: COCA mouse keratinocytes, densitometry
Experimental: For in vitro siRNA-mediated hornerin knockdown, COCA cells and human keratinocytes were plated at a density of 0.1×10^6 cells/well in a six-well cluster plate. The cells were treated the following day with Scr siRNA or Hrnr siRNA (Invitrogen; siRNA sequences identical to those utilized in tumor studies) following an established protocol (see Rachow et al., 2013). Briefly, 100 μL of 10 μM siRNA and 12.5 μL of Lipofectamine 2000 (LF2000; Invitrogen) were added to separate 625 μL OptiMEM (Thermo Fisher Scientific) aliquots. After 5 minutes at RT, the solutions were mixed and incubated for an additional 30 minutes, upon which 5 ml of keratinocyte media were added. The cells were incubated overnight in 3 ml of the siRNA/LF2000/media mixture, replenished the following morning with media containing 2 mM CaCl2) to induce differentiation, and lysed in RIPA buffer 8 hours post-media change. Lysate preparations were subjected to immunoblot using the primary antibodies anti-human hornerin (Abcam; 1:1000), anti-mouse hornerin (Santa Cruz Biotechnology, Dallas, TX, USA, sc164605; 1:200), or anti-beta actin (Cell Signaling; 1:4000), and respective secondary antibodies anti-goat HRP (R&D Systems; 1:10,000), and anti-mouse HRP (R&D Systems; 1:10,000). Uncropped hornerin immunoblots are represented in FIGS. 6A and 6B.

tumor vasculature = test: Photoacoustic microscopy of tumor vasculature; assay type: in vivo, mouse; settings: day 12
Source text: Using an established PAM system (Wang & Hu, 2012; Ning et al., 2015a; Ning et al., 2015b), the tumor vasculature was characterized in vivo. Two laser wavelengths, 532 and 559 nm, were used to simultaneously quantify microvascular diameter, oxygen saturation, and blood flow at the same spatial scale (Ning et al., 2015a). The applied optical energies were 100 and 75 nJ, which are below the maximum permissible exposure energy. Throughout the experiment, mice were maintained under anesthesia with 1.5% vaporized isoflurane and the body temperature was kept at 37° C. All experimental procedures were carried out in conformity with the laboratory animal protocol approved by the Animal Care and Use Committee at the University of Virginia.

5′-GCAUGGAUCUUGUUGCGGUTT-3′ [Hrnr siRNA]
tumors smaller compared to Scr siRNA-injected tumors (L3.6pl PDAC cells; intratumoral injection every other day from day 7, volume at day 13 post implantation): 2.5 fold | reduction in tumor volume (discussion summary) (L3.6pl PDAC cells; monotherapy or combined therapies): two-fold | reduction in hornerin expression (knockdown) relative to Scr siRNA (murine Hrnr): 60% | tumor blood hemoglobin levels (tumor vasculature): remained unchanged | tumor blood oxygen saturation compared to control (tumor vasculature): 1.7 fold
